From ChEMBL document CHEMBL5634151, “Anti-adipogenic action of a novel oxazole derivative through activation of AMPK pathway” (Eur J Med Chem, 2023)
Active and inactive are the calls of the source.

How the values were obtained:
[1] = tested on: 3T3-L1; assay: Inhibition of MDI-cocktail induced adipogenic differentiation in mouse 3T3-L1 pre-adipocyte cells assessed as reduction in FASN protein expression at 0.5 to 5 uM by Western blot analysis; format: functional, cell-based; conditions: dose 0.5-5 µM
[2] = tested on: 3T3-L1; assay: Activation of AMPK pathway in MDI-cocktail differentiated mouse 3T3-L1 pre-adipocyte cells assessed as reversal of 6-(4-(2-(piperidin-1-yl)ethoxy)phenyl)-3-(pyridin-4yl)pyrazolo[1,5-a]pyrimidine induced AMPK inhibition at 5 uM incubated for 72 hrs by immunoblotting analysis; format: cell-based; conditions: filed as activator
[3] = tested on: 3T3-L1; assay: Induction of mitochondrial membrane potential in mouse 3T3-L1 mature adipocytes assessed as increase in TMRE fluorescence at 1 to 5 uM incubated for 24 hrs by TMRE staining based fluorescence microscopic analysis; format: functional, cell-based; conditions: dose 1-5 µM
[4] = tested on: 3T3-L1; assay: Induction of maximum respiration during early phase in MDI-cocktail differentiated mouse 3T3-L1 pre-adipocyte cells 5 uM incubated for 72 hrs by Seahorse XFp flux analyzer; format: functional, cell-based
[5] = tested on: 3T3-L1; assay: Cytotoxicity against mouse 3T3-L1 pre-adipocyte cells assessed as reduction in cell viability 100 uM incubated for 48 hrs by MTT assay; format: toxicity, cell-based; conditions: 3t3-l1, 48 h
[6] = tested on: 3T3-L1; assay: Inhibition of MDI-cocktail induced adipogenic differentiation in mouse 3T3-L1 pre-adipocyte cells assessed as reduction in PPARgamma protein expression at 0.5 to 5 uM by Western blot analysis; format: functional, cell-based; conditions: dose 0.5-5 µM
[7] = tested on: 3T3-L1; assay: Upregulation of CII-SDHB protein expression in mouse 3T3-L1 mature adipocytes at 1 to 5 uM incubated for 24 hrs by Western blot analysis; format: functional, cell-based; conditions: dose 1-5 µM
[8] = tested on: 3T3-L1; assay: Induction of cell cycle arrest in MDI-cocktail differentiated mouse 3T3-L1 pre-adipocyte cells assessed as accumulation of cells at S phase at 3 to 5 uM incubated for 24 hrs by propidium iodide staining based flow cytometry analysis; format: functional; conditions: dose 3-5 µM
[9] = tested on: 3T3-L1; assay: Inhibition of MDI-cocktail induced adipogenic differentiation in mouse 3T3-L1 pre-adipocyte cells assessed as reduction in FABP4 protein expression at 0.5 to 5 uM by Western blot analysis; format: functional, cell-based; conditions: dose 0.5-5 µM
[10] = tested on: C3H 10T1/2; assay: Anti-adipogenic activity in MDI-cocktail differentiated mouse C3H 10T1/2 cells assessed as reduction in adipogenic differentiation at 5 uM measured after 0 to 3 days by Oil Red O staining based microscopic analysis; format: functional, cell-based; conditions: time 0-3 day
[11] = tested on: 3T3-L1; assay: Upregulation of CIII-UQCRC2 protein expression in mouse 3T3-L1 mature adipocytes at 1 to 5 uM incubated for 24 hrs by Western blot analysis; format: functional, cell-based; conditions: dose 1-5 µM
[12] = tested on: 3T3-L1; assay: Anti-adipogenic activity in MDI-cocktail differentiated mouse 3T3-L1 pre-adipocyte cells assessed as reduction in FABP4 protein expression at 5 uM measured for 3 to 7 days by immunoblotting analysis; format: functional, cell-based; conditions: time 3-7 day
[13] = tested on: 3T3-L1; assay: Induction of cell cycle arrest in MDI-cocktail differentiated mouse 3T3-L1 pre-adipocyte cells assessed as reduction in cyclin D1 protein expression at 5 uM measured after 16 to 24 hrs by immunoblotting analysis; format: functional, cell-based; conditions: time 16-24 hrs
[14] = tested on: 3T3-L1; assay: Inhibition of MDI-cocktail induced adipogenic differentiation in mouse 3T3-L1 pre-adipocyte cells assessed as inhibition of lipid accumulation by Oil Red O staining based microscopic analysis; format: functional, cell-based; conditions: dose 0.5-20 µM
[15] = tested on: 3T3-L1; assay: Induction of basal respiration during early phase in MDI-cocktail differentiated mouse 3T3-L1 pre-adipocyte cells 5 uM incubated for 72 hrs by Seahorse XFp flux analyzer; format: functional, cell-based
[16] = tested on: 3T3-L1; assay: Cytotoxicity against mouse 3T3-L1 pre-adipocyte cells assessed as reduction in cell viability >20 uM incubated for 48 hrs by MTT assay; format: toxicity, cell-based; conditions: 3t3-l1, 48 h
[17] = tested on: 3T3-L1; assay: Anti-adipogenic activity in MDI-cocktail differentiated mouse 3T3-L1 pre-adipocyte cells assessed as inhibition of adipogenesis at 20 uM by Oil Red O staining based microscopic analysis relative to control; format: functional
[18] = tested on: Syrian golden hamster; assay: Anti-obesity activity in high-fat diet induced Syrian golden hamster model assessed as reduction in adipose hypertrophy at 50 mg/kg, po administered for 7 days by H and E staining based inverted microscopic analysis; format: functional, organism-based; conditions: Mesocricetus auratus, time 7.0 day
[19] = tested on: 3T3-L1; assay: Anti-adipogenic activity in MDI-cocktail differentiated mouse 3T3-L1 pre-adipocyte cells assessed as inhibition of adipogenesis by Oil Red O staining based microscopic analysis; format: functional, cell-based
[20] = tested on: Syrian golden hamster; assay: Hepatoprotective activity in high-fat diet induced Syrian golden hamster model assessed as reduction in serum AST level at 25 to 50 mg/kg, po administered for 7 days; format: functional, organism-based; conditions: Mesocricetus auratus, dose 25-50 mg/kg, time 7.0 day
[21] = tested on: 3T3-L1; assay: Induction of spare respiratory capacity during early phase in MDI-cocktail differentiated mouse 3T3-L1 pre-adipocyte cells 5 uM incubated for 72 hrs by Seahorse XFp flux analyzer; format: functional, cell-based
[22] = tested on: Syrian golden hamster; assay: Anti-obesity activity in high-fat diet induced Syrian golden hamster model assessed as rescue of normal eWAT weight at 25 to 50 mg/kg, po administered for 7 days; format: functional, organism-based; conditions: Mesocricetus auratus, dose 25-50 mg/kg, time 7.0 day
[23] = tested on: Syrian golden hamster; assay: Anti-obesity activity in high-fat diet induced Syrian golden hamster model assessed as reduction in lean mass at 50 mg/kg, po administered for 7 days by 1H NMR spectroscopy-based Echo MRI system; format: functional, organism-based; conditions: Mesocricetus auratus, time 7.0 day
[24] = tested on: Syrian golden hamster; assay: Anti-obesity activity in high-fat diet induced Syrian golden hamster model assessed as reduction in fat mass at 50 mg/kg, po administered for 7 days by 1H NMR spectroscopy-based Echo MRI system; format: functional, organism-based; conditions: Mesocricetus auratus, time 7.0 day
[25] = tested on: Syrian golden hamster; assay: Anti-obesity activity in high-fat diet induced Syrian golden hamster model assessed as reduction in weight gain at 50 mg/kg, po administered for 7 days and measured daily; format: functional, organism-based; conditions: Mesocricetus auratus, time 7.0 day
[26] = tested on: 3T3-L1; assay: Anti-adipogenic activity in MDI-cocktail differentiated mouse 3T3-L1 pre-adipocyte cells assessed as reduction in adipogenic differentiation at 5 uM measured after 0 to 3 days by Oil Red O staining based microscopic analysis; format: functional, cell-based; conditions: time 0-3 day
[27] = Toxicity in high-fat diet induced Syrian golden hamster obese model assessed as effect on food intake at 25 to 50 mg/kg, po administered for 7 days and measured daily; format: organism-based, Mesocricetus auratus; conditions: in vivo, 168 h, dose 25-50 mg/kg, time 7 day
[28] = tested on: C3H 10T1/2; assay: Inhibition of MDI-cocktail induced adipogenic differentiation in mouse C3H 10T1/2 cells assessed as reduction in lipid bound stain absorbance at 0.5 to 25 uM by Oil Red O staining based microscopic analysis; format: functional, cell-based; conditions: dose 0.5-25 µM
[29] = tested on: 3T3-L1; assay: Induction of mitochondrial respiration in MDI-cocktail differentiated mouse 3T3-L1 pre-adipocyte cells assessed as increase in oxygen consumption rate at 5 uM incubated for 72 hrs in presence of FCCP by Seahorse XFp flux analyzer; format: functional, cell-based
[30] = tested on: 3T3-L1; assay: Upregulation of CI-NDUFB8 protein expression in mouse 3T3-L1 mature adipocytes at 1 to 5 uM incubated for 24 hrs by Western blot analysis; format: functional, cell-based; conditions: dose 1-5 µM
[31] = tested on: Syrian golden hamster; assay: Anti-dyslipidaemic activity in high-fat diet induced Syrian golden hamster model assessed as assessed as reduction in serum total cholesterol level at 25 to 50 mg/kg, po administered for 7 days; format: functional, organism-based; conditions: Mesocricetus auratus, dose 25-50 mg/kg, time 7.0 day
[32] = tested on: Syrian golden hamster; assay: Anti-obesity activity in high-fat diet induced Syrian golden hamster model assessed as reduction in lipid accumulation in liver cells at 50 mg/kg, po administered for 7 days by H and E staining based inverted microscopic analysis; format: functional, organism-based; conditions: Mesocricetus auratus, time 7.0 day
[33] = tested on: 3T3-L1; assay: Induction of proton leak during early phase in MDI-cocktail differentiated mouse 3T3-L1 pre-adipocyte cells 5 uM incubated for 72 hrs by Seahorse XFp flux analyzer; format: functional, cell-based

Cc1ccc(-c2cnc(-c3ccc[n+](Cc4cccc(C)c4)c3)o2)cc1.[Br-]
390 nM: IC50 ([19]; read-out: IC50) | IC50 ([19]; read-out: pIC50 (converted))
> 70%: inhibition at 20 µM [17]
active: inhibition [1] | Activity [2] | Activity [3] | Activity [4] | inhibition [6] | Activity [7] | Activity [8] | inhibition [9] | Activity [10] | Activity [11] | Activity [12] | Activity [13] | inhibition [14] | Activity [15] | Activity [18] | Activity [20] | Activity [21] | Activity [22] | Activity [23] | Activity [24] | Activity [25] | Activity [26] | inhibition [28] | Activity [29] | Activity [30] | Activity [31] | Activity [32] | Activity [33]
Non-Toxic: Activity [16] | Activity [27]
Toxic: Activity [5]
